Test systems include MALME-3M melanoma; NCI-H226 lung; OVCAR-8 ovarian; SN12C renal; SK-MEL-28 melanoma; SNB-19 CNS; NCI-H23 lung; TK-10 renal; 786-0 renal.
Holding throughout (experiment): NCI anticancer screen, dose series, 48 h

Molecules are shown by their SMILES. Values joined by “and” are separate entries in the source; they are usually repeats but may differ in a detail not shown here. Equal values may be shown once.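 Results reflect a 48-hour exposure of cells in 96-well plates to compound at five concentrations. GI50 is the concentration that inhibits growth by half. TGI marks complete inhibition of growth.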

For `Cc1ccc(NC(=O)CC/C(CC(=O)C(C)(C)C)=N/NC(=O)c2cc3ccccc3cc2O)cc1C`, the TGI with MALME-3M melanoma, in the test on NCI-H226 lung, in the test on OVCAR-8 ovarian, with SN12C renal, in the test on SK-MEL-28 melanoma and in the test with SNB-19 CNS was more than 100 µM in each case. For the same molecule, the TGI in the test on NCI-H23 lung came out at 47.6 µM.

`CC(=O)CCC1(C(=O)OCC(C)C)CCCC1=O` (configuration not stated): the TGI with MALME-3M melanoma, with NCI-H226 lung, with OVCAR-8 ovarian, with TK-10 renal, in the test with SN12C renal and with SK-MEL-28 melanoma was more than 100 µM each time. Moreover, the TGI in the test with SNB-19 CNS, in the test on NCI-H23 lung and in the test with 786-0 renal was more than 100 µM in each case.

Take `CCC12CCC[C@@]13C=C[C@H](O3)C(C)(C)C2=O` (some centres not stated): the TGI in the test with MALME-3M melanoma, in the test on NCI-H226 lung, with OVCAR-8 ovarian, in the test on TK-10 renal, in the test on SN12C renal and with SNB-19 CNS was more than 100 µM in each case. The TGI in the test on NCI-H23 lung was more than 100 µM.

Turning to `COc1ccc(/C(C=O)=C(\Cl)c2ccc(OC)c(OC)c2)cc1`, the TGI in the test on MALME-3M melanoma, with NCI-H226 lung, with OVCAR-8 ovarian, in the test with TK-10 renal, in the test on SN12C renal and in the test with SNB-19 CNS was more than 100 µM throughout. Further, the TGI in the test with NCI-H23 lung is more than 100 µM.

For `CC1CC(c2ccccc2)=Nc2ccccc2S1` (configuration not stated), the TGI with NCI-H226 lung, in the test with OVCAR-8 ovarian, in the test on TK-10 renal, in the test on SN12C renal, in the test on SK-MEL-28 melanoma and with SNB-19 CNS was more than 100 µM in each case. Also, the TGI in the test with NCI-H23 lung is more than 100 µM.

As for `CC(C)C(NCc1c2ccccc2[n+](C)c2ccccc12)C(=O)O` (configuration not stated), the TGI with MALME-3M melanoma was determined as 19.1 µM; in the test with NCI-H226 lung it was 38.6 µM; in the test with OVCAR-8 ovarian, 15.1 µM; in the test with TK-10 renal it was 21.3 µM; in the test with SN12C renal, 18 µM; with SK-MEL-28 melanoma, 26.8 µM. Also, the results for the TGI with SNB-19 CNS, in the test on NCI-H23 lung and in the test on 786-0 renal were 33 µM, 27.2 µM and 15.6 µM, respectively.

With `O=C1c2ccccc2-c2c1c1ccccc1c(=O)n2CCCNCCNCCCn1c2c(c3ccccc3c1=O)C(=O)c1ccccc1-2`, the GI50 in the test on MALME-3M melanoma is 0.681 µM; with NCI-H226 lung it was less than 0.0267 µM; in the test with OVCAR-8 ovarian, less than 0.01 µM; with TK-10 renal, 0.279 µM; in the test on SK-MEL-28 melanoma, 1.09 µM; with NCI-H23 lung, 0.508 µM. The TGI is 2.27 µM in the test with MALME-3M melanoma; 1.98 µM with NCI-H226 lung; 1.66 µM in the test with OVCAR-8 ovarian; 2.08 µM in the test on TK-10 renal; 1.81 µM in the test with SN12C renal; more than 100 µM with SK-MEL-28 melanoma. Besides, in the test on NCI-H23 lung, the TGI worked out at 2.57 µM.

Take `COc1c(OC2OC(CO)C(O)C(O)C2O)cc2c(c1OC)-c1ccc(OC)c(=O)cc1C(NC(C)=O)CC2` (configuration not stated): the TGI in the test on MALME-3M melanoma, in the test on NCI-H226 lung, with OVCAR-8 ovarian, in the test with TK-10 renal, in the test on SN12C renal and in the test with SK-MEL-28 melanoma was more than 100 µM in each case. Also, the TGI with SNB-19 CNS, in the test with NCI-H23 lung and with 786-0 renal was more than 100 µM throughout.

Consider `COc1cccc(/C=N/[N-]C(N)=O)c1[O-].[Cu+2].[OH3+]`, for which the TGI is 28.8 µM with MALME-3M melanoma; 31.3 µM in the test on NCI-H226 lung; 24.4 µM in the test on OVCAR-8 ovarian; 27.2 µM in the test with SN12C renal; 27.8 µM in the test with SK-MEL-28 melanoma; 8.97 µM and 28.5 µM in the test on SNB-19 CNS. Also, the TGI is 21.9 µM with NCI-H23 lung and 30.3 µM in the test on 786-0 renal. Also, the figures for the GI50 in the test on OVCAR-8 ovarian, in the test on SNB-19 CNS and in the test with NCI-H23 lung were 10.7 µM, 14.9 µM and 9.7 µM, respectively.

Take `CN(C)c1cccc2c(S(=O)(=O)NCCN)cccc12`: the TGI in the test with MALME-3M melanoma, in the test on NCI-H226 lung, with SN12C renal, in the test with SK-MEL-28 melanoma, in the test with SNB-19 CNS and with NCI-H23 lung was more than 100 µM in each case. The molecule also registered a TGI in the test on 786-0 renal of more than 100 µM.

On to `O=C(O)C1CCC(=O)N1C(=O)COc1cc(Cl)c(Cl)cc1Cl` (configuration not stated), for which the TGI in the test with NCI-H226 lung, in the test on OVCAR-8 ovarian, with TK-10 renal, with SN12C renal, with SK-MEL-28 melanoma and in the test on SNB-19 CNS was more than 100 µM each time. This molecule displayed a TGI with NCI-H23 lung of more than 100 µM.

For `NCCCNc1nc2ccccc2c2c(=O)c3cc(Cl)ccc3sc12`, the values for the GI50 in the test with NCI-H226 lung, in the test on TK-10 renal and in the test on SN12C renal were 8.54 µM, 2.18 µM and 1.63 µM, respectively. In addition, the TGI with NCI-H226 lung was found to be 74.2 µM; in the test with TK-10 renal, 3.68 µM; with SN12C renal it was 3.07 µM.

In the case of `O=C(N/N=C/c1ccccc1)c1c(F)c(F)c(F)c(F)c1F`, the TGI in the test with MALME-3M melanoma, with NCI-H226 lung, with OVCAR-8 ovarian, in the test on TK-10 renal, with SN12C renal and with SK-MEL-28 melanoma was more than 100 µM each time. Moreover, the TGI with SNB-19 CNS and in the test on NCI-H23 lung was more than 100 µM each time.

The record behind these values is PubChem BioAssay (NCI).
